Laboratory results taken from US20240343727A1, “PYRIDAZINONE OR PYRIDINONE COMPOUNDS, PREPARATION METHODS AND USES THEREOF” (InventisBio Co., Ltd., priority 2021, published 2024).

Each compound was assayed against T1, PARP7 (Homo sapiens, UniProt Q7Z3E1) (assay: PARP7 TR-FRET assay (binding, displacement of biotinylated Probe A)). Conditions: 6 nM PARP7, 2 nM Probe A, 25° C., 30 min.
T1 sequence (Q7Z3E1 1-657): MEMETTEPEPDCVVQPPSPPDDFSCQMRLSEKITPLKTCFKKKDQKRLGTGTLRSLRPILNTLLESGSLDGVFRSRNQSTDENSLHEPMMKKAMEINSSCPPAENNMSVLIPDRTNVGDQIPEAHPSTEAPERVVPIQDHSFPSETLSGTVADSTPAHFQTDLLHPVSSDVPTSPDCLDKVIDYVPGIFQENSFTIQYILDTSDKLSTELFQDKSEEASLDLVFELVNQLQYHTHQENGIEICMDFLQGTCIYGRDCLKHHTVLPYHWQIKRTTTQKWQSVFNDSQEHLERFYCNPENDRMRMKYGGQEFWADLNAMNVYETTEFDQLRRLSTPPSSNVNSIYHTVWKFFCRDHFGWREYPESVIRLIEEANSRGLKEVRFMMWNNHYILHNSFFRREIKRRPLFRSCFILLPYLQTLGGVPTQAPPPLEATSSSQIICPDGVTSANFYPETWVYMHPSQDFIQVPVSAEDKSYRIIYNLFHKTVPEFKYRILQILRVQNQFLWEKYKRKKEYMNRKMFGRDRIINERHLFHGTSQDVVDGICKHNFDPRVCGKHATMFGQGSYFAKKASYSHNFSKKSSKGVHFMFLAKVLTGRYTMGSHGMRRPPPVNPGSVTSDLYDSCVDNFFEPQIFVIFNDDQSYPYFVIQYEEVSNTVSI
Procedure: Biological Assay Example A: PARP7 TR-FRET Assay
A time-resolved fluorescence energy transfer (TR-FRET) assay was used to test binding activity of compounds to PARP7. Two microliter test compound was added in 384-well plate. Reactions were performed in a 6 uL volume by adding 4 uL mixture of PARP7 and Probe A (a biotinylated probe binding to the PARP7: N-(6-(2-(4-((2-(6-oxo-5-(trifluoromethyl)-1,6-dihydropyridazin-4-yl) isoindolin-5-yl) oxy) piperidin-1-yl) acetamido) hexyl)-5-((3aS,4S,6aR)-2-oxohexahydro-1H-thieno [3,4-d]imidazol-4-yl) pentanamide, made as reported in WO2019212937A1) in assay buffer (20 mM HEPES pH 8.0, 100 mM NaCl, 0.1% BSA, 2 mM DTT and 0.002% Tween20). The final concentration of PARP7 and Probe A were 6 nM and 2 nM, incubating with test compounds at 25° C. for 30 min. Four microliter ULight-anti 6xHis and LANCE Eu-W1024 labeled streptavidin (PerkinElmer) were added with the final concentration of ULight-anti 6xHis and LANCE Eu-W1024 at 4 nM and 0.25 nM. The reaction mixture was incubated at 25° C. for 30 min. The plate was read on a Tecan Spark plate reader (excitation wavelength at 320 nm, emission wavelength at 615 nm and 665 nm with a 90 us delay. The ratio of the 665/615 nm emission was calculated for each well to the amount of complex of PARP7 and Probe A in each well was calculated. The 0.25% DMSO vehicle was used as control and no PARP7 well was as blank well. Inhibition rate is calculated with the formula of % inhibition=100-100*(TRFcmpd-TRFblank)/(TRFcontrol−TRFblank). Inhibition IC50 is calculated with the equation of Y=Bottom+ (Top-Bottom)/(1+10^((LogIC50−X) *Hill Slope))

Compared with O=C(CO[C@H]1CCNc2c1n[nH]c(=O)c2C(F)(F)F)N1CCN(c2ncc(C(F)(F)F)cn2)CC1 (single isomer, unassigned) [Compound 3], O=C(CCO[C@@H]1CCNc2c1n[nH]c(=O)c2C(F)(F)F)N1CCN(c2ncc(C(F)(F)F)cn2)CC1 (single isomer, unassigned) [Compound 6] is lower in IC50: 100 to 1000 nM for the first, under 100 nM for the second. The second is the more potent here.

Compared with CN1CC[C@@H](OCC(=O)N2CCN(c3ncc(C(F)(F)F)cn3)CC2)c2n[nH]c(=O)c(C(F)(F)F)c21 (single isomer, unassigned) [Compound 4], CN1CC[C@H](OCC(=O)N2CCN(c3ncc(C(F)(F)F)cn3)CC2)c2n[nH]c(=O)c(C(F)(F)F)c21 (single isomer, unassigned) [Compound 5] is higher in IC50: under 100 nM for the first, 100 to 1000 nM for the second.

First: O=C(CCO[C@H]1CCNc2c1n[nH]c(=O)c2C(F)(F)F)N1CCN(c2ncc(C(F)(F)F)cn2)CC1 (single isomer, unassigned) [Compound 7]
Second: O=C(COC1CCOc2c1n[nH]c(=O)c2C(F)(F)F)N1CCN(c2ncc(C(F)(F)F)cn2)CC1 (single isomer, unassigned) [Compound 10]
The IC50 of the first is higher: 100 to 1000 nM for the first, under 100 nM for the second.

Going from O=C(COC1CCOc2c1n[nH]c(=O)c2Br)N1CCN(c2ncc(C(F)(F)F)cn2)CC1 (single isomer, unassigned) [Compound 9] to O=C(COC1CCOc2c1n[nH]c(=O)c2C(F)F)N1CCN(c2ncc(C(F)(F)F)cn2)CC1 (single isomer, unassigned) [Compound 55], the IC50 falls from over 1000 nM to under 100 nM. The second is the more potent here.

Going from O=C(COC1CCOc2c1n[nH]c(=O)c2C(F)(F)F)N1CCN(c2ncc(C(F)(F)F)cn2)CC1 (single isomer, unassigned) [Compound 11] to O=C(COC1CCOc2c1n[nH]c(=O)c2C1CC1)N1CCN(c2ncc(C(F)(F)F)cn2)CC1 (single isomer, unassigned) [Compound 128], the IC50 falls from over 1000 nM to under 100 nM. The second is the more potent here.

CN1C[C@H](OCC(=O)N2CCN(c3ncc(C(F)(F)F)cn3)CC2)c2n[nH]c(=O)c3cc(F)cc1c23 (single isomer, unassigned) [Compound 13] and O=C(CC1CN(c2n[nH]c(=O)c3cc(F)ccc23)CCO1)N1CCN(c2ncc(C(F)(F)F)cn2)CC1 (single isomer, unassigned) [Compound 49] fall in the same range of IC50: 100 to 1000 nM for the first, 100 to 1000 nM for the second.

Compared with O=C(CC1CN(c2cc(C(F)(F)F)c(=O)[nH]n2)CCO1)N1CCN(c2ncc(C(F)(F)F)cn2)CC1 (single isomer, unassigned) [Compound 31], C#Cc1cc(N2CCOC(CC(=O)N3CCN(c4ncc(C(F)(F)F)cn4)CC3)C2)n[nH]c1=O (single isomer, unassigned) [Compound 44] is higher in IC50: under 100 nM for the first, 100 to 1000 nM for the second.

Cc1c(N2CCOC(CC(=O)N3CCN(c4ncc(C(F)(F)F)cn4)CC3)C2)n[nH]c(=O)c1C(F)(F)F (single isomer, unassigned) [Compound 38] and C#Cc1c(C)c(N2CCOC(CC(=O)N3CCN(c4ncc(C(F)(F)F)cn4)CC3)C2)n[nH]c1=O (single isomer, unassigned) [Compound 89] cannot be ordered by IC50: under 100 nM for the first, under 100 nM for the second.

C#Cc1cc(N2CCOC(CC(=O)N3CCN(c4ncc(C(F)(F)F)cn4)CC3)C2)n[nH]c1=O (single isomer, unassigned) [Compound 45] and C#Cc1c(C)c(N2CCOC(CC(=O)N3CCN(c4ncc(C(F)(F)F)cn4)CC3)C2)n[nH]c1=O (single isomer, unassigned) [Compound 113] fall in the same range of IC50: 100 to 1000 nM for the first, 100 to 1000 nM for the second.

First: O=C(CC1CN(c2n[nH]c(=O)c3ccc(F)cc23)CCO1)N1CCN(c2ncc(C(F)(F)F)cn2)CC1 (single isomer, unassigned) [Compound 51]
Second: O=C(CC1CN(c2n[nH]c(=O)c3ccc(Cl)cc23)CCO1)N1CCN(c2ncc(C(F)(F)F)cn2)CC1 (single isomer, unassigned) [Compound 100]
The IC50 of the first is higher: 100 to 1000 nM for the first, under 100 nM for the second.

O=C(CC1CN(c2n[nH]c(=O)c3ccc(F)cc23)CCO1)N1CCN(c2ncc(C(F)(F)F)cn2)CC1 (single isomer, unassigned) [Compound 52] and Cc1ccc2c(=O)[nH]nc(N3CCOC(CC(=O)N4CCN(c5ncc(C(F)(F)F)cn5)CC4)C3)c2c1 (single isomer, unassigned) [Compound 102] cannot be ordered by IC50: under 100 nM for the first, under 100 nM for the second.

O=C(CC1CN(c2cc(C(F)(F)F)c(=O)[nH]n2)CCC1(F)F)N1CCN(c2ncc(C(F)(F)F)cn2)CC1 (single isomer, unassigned) [Compound 80] and O=C(OC1CN(c2cc(C(F)(F)F)c(=O)[nH]n2)CCC1(F)F)N1CCN(c2ncc(C(F)(F)F)cn2)CC1 (single isomer, unassigned) [Compound 81] cannot be ordered by IC50: under 100 nM for the first, under 100 nM for the second.

O=C(CC1CN(c2n[nH]c(=O)c3c(Cl)cccc23)CCO1)N1CCN(c2ncc(C(F)(F)F)cn2)CC1 (single isomer, unassigned) [Compound 93] and O=C(CC1CN(c2n[nH]c(=O)c3c(F)cccc23)CCO1)N1CCN(c2ncc(C(F)(F)F)cn2)CC1 (single isomer, unassigned) [Compound 94] cannot be ordered by IC50: under 100 nM for the first, under 100 nM for the second.

Compared with O=C(CC1CN(c2n[nH]c(=O)c3c(Cl)cccc23)CCO1)N1CCN(c2ncc(C(F)(F)F)cn2)CC1 (single isomer, unassigned) [Compound 98], Cc1cccc2c(N3CCOC(CC(=O)N4CCN(c5ncc(C(F)(F)F)cn5)CC4)C3)n[nH]c(=O)c12 (single isomer, unassigned) [Compound 106] is higher in IC50: under 100 nM for the first, 100 to 1000 nM for the second. The first is the more potent here.

First: O=C(CC1CN(c2n[nH]c(=O)c3cc(Cl)ccc23)CCO1)N1CCN(c2ncc(C(F)(F)F)cn2)CC1 (single isomer, unassigned) [Compound 99]
Second: O=C(CC1CN(c2n[nH]c(=O)c3ccc(Cl)cc23)CCO1)N1CCN(c2ncc(C(F)(F)F)cn2)CC1 (single isomer, unassigned) [Compound 122]
The IC50 of the first is lower: under 100 nM for the first, 100 to 1000 nM for the second. The first is the more potent here.

Compared with O=C(CC1CN(c2n[nH]c(=O)c3ccc(C4CC4)cc23)CCO1)N1CCN(c2ncc(C(F)(F)F)cn2)CC1 (single isomer, unassigned) [Compound 103], O=C(CC1CN(c2n[nH]c(=O)c3cc(Cl)ccc23)CCO1)N1CCN(c2ncc(C(F)(F)F)cn2)CC1 (single isomer, unassigned) [Compound 121] is higher in IC50: under 100 nM for the first, 100 to 1000 nM for the second. The first is the more potent here.

O=C(CC1CN(c2n[nH]c(=O)c3cccnc23)CCO1)N1CCN(c2ncc(C(F)(F)F)cn2)CC1 (single isomer, unassigned) [Compound 104] and O=C(CC1CN(c2n[nH]c(=O)c3ncccc23)CCO1)N1CCN(c2ncc(C(F)(F)F)cn2)CC1 (single isomer, unassigned) [Compound 125] cannot be ordered by IC50: under 100 nM for the first, under 100 nM for the second.

O=C(CC1CN(c2n[nH]c(=O)c3ccc(C4CC4)cc23)CCO1)N1CCN(c2ncc(C(F)(F)F)cn2)CC1 (single isomer, unassigned) [Compound 105] and O=C(CC1CN(c2n[nH]c(=O)c3ccccc23)CCO1)N1CCN(c2ncc(C(F)(F)F)cn2)CC1 (single isomer, unassigned) [Compound 107] fall in the same range of IC50: 100 to 1000 nM for the first, 100 to 1000 nM for the second.

First: O=C(CC1CN(c2cc(C(F)(F)F)c(=O)[nH]n2)CCC1(F)F)N1CCN(c2ncc(C(F)(F)F)cn2)CC1 (single isomer, unassigned) [Compound 108]
Second: O=C(OC1CN(c2cc(C(F)(F)F)c(=O)[nH]n2)CCC1(F)F)N1CCN(c2ncc(C(F)(F)F)cn2)CC1 (single isomer, unassigned) [Compound 117]
The IC50 of the first is lower: under 100 nM for the first, over 1000 nM for the second. The first is the more potent here.

First: O=C(CC1CN(c2n[nH]c(=O)c3c(F)cccc23)CCO1)N1CCN(c2ncc(C(F)(F)F)cn2)CC1 (single isomer, unassigned) [Compound 109]
Second: O=C(CC1CN(c2n[nH]c(=O)c3ncccc23)CCO1)N1CCN(c2ncc(C(F)(F)F)cn2)CC1 (single isomer, unassigned) [Compound 126]
The IC50 of the first is lower: under 100 nM for the first, over 1000 nM for the second. The first is the more potent here.

With O=C(CC1CN(c2n[nH]c(=O)c3cccnc23)CCO1)N1CCN(c2ncc(C(F)(F)F)cn2)CC1 (single isomer, unassigned) [Compound 124] the IC50 was over 1000 nM.
